The test deals with T1, Na^+/K^+ ATPase.
T1 construct: gene ATP1A1; enzyme isolated from porcine cerebral cortex
As to the kind of experiment: ATPase enzymatic activity assay (Sigma) with isolated porcine cerebral cortex enzyme. It is filed as biochemical, Sus scrofa.

From PMC5029711, “Functional characterization and anti-cancer action of the clinical phase II cardiac Na^+/K^+ ATPase inhibitor istaroxime: in vitro and in vivo properties and cross talk with the membrane androgen receptor” (Oncotarget, 2016) come the findings set out here.

SMILES strings stand for the structures. pIC50: −log10 of the molar value.

Take `C[C@]12CCC(=NOCCN)C[C@@H]1C(=O)C[C@@H]1[C@@H]2CC[C@]2(C)C(=O)CC[C@@H]12` [istaroxime, (E, Z) 3-(2-aminoethoxyimino)-5α-androstane-6, 17-trione]: the pIC50 was 6.39.
